Reference: article PMC9501810, “Bitter Peptides YFYPEL, [sequence], and [sequence], Released during Gastric Digestion of Casein, Stimulate Mechanisms of Gastric Acid Secretion via Bitter Taste Receptors TAS2R16 and TAS2R38” (Journal of Agricultural and Food Chemistry, 2022)
Where “and” joins values, the source holds several entries; their conditions need not be identical. Identical values can stand only once.

Columns and labels:
pepsin = assay: In vitro gastric digestion of casein with targeted UHPLC-MS/MS-MRM quantitation of peptides; assay type: in vitro ADME, porcine; conditions: 37 °C, n = 4; for degradation of the peptide during further in vitro gastric digestion: up to 6 h
Description: The in vitro digestion was based on the Nature protocol established by Brodkorb et al.([30]) For this, simulated salivary fluid (SSF, containing 15.1 mM KCl, 3.7 mM KH2PO4, 13.6 mM NaHCO3, 0.15 mM MgCl2(H2O)6, 0.06 mM (NH4)2CO3, 1.1 mM HCl, and 1.5 mM CaCl2(H2O)2) and simulated gastric fluid (SGF, containing 6.9 mM KCl, 0.9 mM KH2PO4, 25.0 mM NaHCO3, 47.2 mM NaCl, 0.12 mM MgCl2(H2O)6, 0.5 mM (NH4)2CO3, 15.6 mM HCl, and 0.15 mM CaCl2(H2O)2) were prepared. A total amount of 100 mg casein was suspended in 3 mL of SSF and incubated for 5 min at 37 °C in the tube rotator. After taking a sample (500 μL, t = 0 h), 2 mL of SGF was added and the pH was adjusted to 3 with 100 μL of HCl (1 M). After addition of 125 μL of pepsin solution (80,000 U/mL in 10 mM HCl), 275 μL of H2O was added to fill up to 5 mL. This was followed by further incubation at 37 °C in a tube rotator for 6 h. 500 μL of samples was taken at 0.25, 0.5, 0.75, 1, 2, 3, 4, 5, and 6 h, respectively. The samples were frozen in liquid nitrogen and stored at −80 °C until further analysis. For MS experiments, all samples were diluted 1:1 with 10% MeCN.
All targeted proteomics LC–MS/MS measurements were performed using a Sciex ExionLC AC (Sciex, Darmstadt, Germany) coupled to a 6500+ QTrap LC–MS/MS system (Sciex, Darmstadt, Germany) operating in the positive electrospray ionization mode. Data acquisition and instrumentation control were performed with AnalystTF software (v 1.7.1; Sciex, Darmstadt, Germany). Separation was performed using a 100 × 2.1 mm, 1.7 μm, Kinetex C18 column (Phenomenex, Aschaffenburg, Germany) with a guard column of the same type with 0.1% aqueous formic acid and acetonitrile containing 0.1% formic acid at a flow rate of 0.25 mL/min. The gradient was based on the following scheme: 0 min, 15% B; 7 min, 40% B; 7.5 min, 98% B; 10.5 min, 98% B; 10.8 min, 15% B; and 15 min, 15% B. The column oven temperature was set at 40 °C, and the injection volume was 1 μL per sample. For MS/MS measurements, the same parameters were used for all samples (ion spray voltage […], source temperature 450 °C, nebulizing gas 60 psi, and heating gas 30 psi). Nitrogen was set to 35 psi and served as a curtain gas to effectively dissolve the ions. To optimize the parameters DP, CE, and collision cell exit potential for each peptide and transition (Supporting Information Table-SI 2), standard solutions of the five synthesized peptides were injected directly into the MS ion source. Ionization parameters were optimized in positive ESI mode using AnalystTF software (v 1.7.1; Sciex, Darmstadt, Germany). For the preparation of the calibration curves, five peptides were dissolved individually in D2O (600 μL) and the concentration of the stock solutions was determined by qNMR.[35] For each peptide, seven calibration solutions (0.5, 1, 5, 10, 50, 100, and 200 μM) were diluted in 5% MeCN from these stock solutions. The data were analyzed using MultiQuant software (v 3.0.3; Sciex, Darmstadt, Germany).

TAS2R3 = assay: RT-qPCR gene expression of TAS2R3 in HGT-1 cells; assay type: cell-based, human; conditions: VAPFPEVF 17.5 µM, YFYPEL 0.03 µM, YQEPVLGPVRGPFPIIV 0.4 µM, normalized to PPIA and GAPDH and untreated cells, mean, n = 3–5
Description: (§1) For mRNA expression analysis, 800,000 cells were seeded in a T25 cell culture flask (25 cm^2) 1 day before the experiment. After incubation with 17.5 μM […], 0.03 μM YFYPEL, or 0.4 μM […] for 15, 30, 60, and 120 min, RNA was isolated using the peqGOLD RNA Kit (VWR Peqlab, USA) following the manufacturer’s protocol. Determination of RNA concentration (A260/A280 between 2.03 and 2.09) was performed on a NanoDrop One^c (Thermo Fisher Scientific Inc., USA). RNA integrity number (RIN 9.9–10.0, version 2.6, assay class Eukaryote Total RNA Nano) was analyzed using a 2100 Bioanalyzer (Agilent Technologies, USA). Removal of gDNA and synthesis of cDNA were performed using the iScript gDNA Clear cDNA Synthesis Kit (BioRad, Feldkirchen, Germany) following the manufacturer’s protocol. Real-time-qPCR (RT-qPCR) was performed with 50 ng cDNA amplified with SsoAdvanced Universal SYBR Green Supermix (Bio-Rad Laboratories, Inc., USA). The sequences of the forward and reverse primers of the 25 TAS2Rs were taken from Liszt et al.([13]) (Supporting Information Table-SI 3). Verified primers for the TAS1Rs (TAS1R1: qHsaCID0013443; TAS1R2: qHsaCID0016106; TAS1R3: qHsaCED0002321) and for MAPK1 (qHsaCEP0050000) were obtained from Bio-Rad Laboratories. PPIA[37] and GAPDH[38] were used as reference genes. The effects of the peptides on gene expression were analyzed in comparison to untreated control cells.

TAS2R10 = assay: RT-qPCR gene expression of TAS2R10 in HGT-1 cells; assay type: cell-based, human; conditions: VAPFPEVF 17.5 µM, YFYPEL 0.03 µM, YQEPVLGPVRGPFPIIV 0.4 µM, normalized to PPIA and GAPDH and untreated cells, mean, n = 3–5
Description: as §1

TAS2R13 = assay: RT-qPCR gene expression of TAS2R13 in HGT-1 cells; assay type: cell-based, human; conditions: VAPFPEVF 17.5 µM, YFYPEL 0.03 µM, YQEPVLGPVRGPFPIIV 0.4 µM, normalized to PPIA and GAPDH and untreated cells, mean, n = 3–5
Description: as §1

TAS2R20 = assay: RT-qPCR gene expression of TAS2R20 in HGT-1 cells; assay type: cell-based, human; conditions: VAPFPEVF 17.5 µM, YFYPEL 0.03 µM, YQEPVLGPVRGPFPIIV 0.4 µM, normalized to PPIA and GAPDH and untreated cells, mean, n = 3–5
Description: as §1

“YFYPEL [bitter casein peptide αS1-CN144–149]” was tested, and the “degradation of the peptide during further in vitro gastric digestion” value (from here on “degradation”) (pepsin; SGF pH 3 with pepsin) was “no noticeable degradation”, the “change in gene expression of TAS2R3” value (TAS2R3; incubation 15 min) was 1.54 fold change and the “change in gene expression of TAS2R3” value (TAS2R3; incubation 30 min) was 1.08 fold change. The “change in gene expression of TAS2R3” value (TAS2R3; incubation 60 min) was 1.19 fold change, the “change in gene expression of TAS2R3” value (TAS2R3; incubation 120 min) was 1.34 fold change and the “change in gene expression of TAS2R10” value (TAS2R10; incubation 15 min) was 0.64 fold change. The “change in gene expression of TAS2R10” value (TAS2R10; incubation 30 min) was 0.41 fold change and 0.41 ± 0.05 fold change, the “change in gene expression of TAS2R10” value (TAS2R10; incubation 60 min) was 0.72 fold change and the “change in gene expression of TAS2R10” value (TAS2R10; incubation 120 min) was 0.90 fold change. For the same substance, the “change in gene expression of TAS2R13” value (TAS2R13; incubation 15 min) was 1.14 fold change, the “change in gene expression of TAS2R13” value (TAS2R13; incubation 30 min) was 0.53 fold change and the “change in gene expression of TAS2R13” value (TAS2R13; incubation 60 min) was 0.78 fold change. For the same substance, the “change in gene expression of TAS2R13” value (TAS2R13; incubation 120 min) was 0.88 fold change, the “change in gene expression of TAS2R20” value (TAS2R20; incubation 15 min) was 1.37 fold change and the “change in gene expression of TAS2R20” value (TAS2R20; incubation 30 min) was 0.93 fold change. For the same substance, the “change in gene expression of TAS2R20” value (TAS2R20; incubation 60 min) was 0.94 fold change and the “change in gene expression of TAS2R20” value (TAS2R20; incubation 120 min) was 1.16 fold change.

For “YQEPVLGPVRGPFPIIV [bitter casein peptide βA1/A2-CN193–209]”, the “final concentration after 6 h of in vitro digestion” value (pepsin; 100 mg casein, SGF pH 3 with pepsin, 6 h, mean) was 22.5 µM, the “highest concentration released during in vitro digestion” value (pepsin; 100 mg casein, SSF then SGF pH 3 with pepsin, 0–6 h, mean) was “up to 300.8 μM” and the “degradation” value (pepsin; SGF pH 3 with pepsin) was “continuous cleavage over the 6 h”. For the same substance, the “change in gene expression of TAS2R3” value (TAS2R3; incubation 15 min) was 1.03 fold change, the “change in gene expression of TAS2R3” value (TAS2R3; incubation 30 min) was 1.89 fold change and the “change in gene expression of TAS2R3” value (TAS2R3; incubation 60 min) was 1.61 fold change. The “change in gene expression of TAS2R3” value (TAS2R3; incubation 120 min) was 1.40 fold change, the “change in gene expression of TAS2R10” value (TAS2R10; incubation 15 min) was 0.52 fold change and 0.52 ± 0.06 fold change and the “change in gene expression of TAS2R10” value (TAS2R10; incubation 30 min) was 0.78 fold change. For the same substance, the “change in gene expression of TAS2R10” value (TAS2R10; incubation 60 min) was 0.90 fold change, the “change in gene expression of TAS2R10” value (TAS2R10; incubation 120 min) was 1.04 fold change and the “change in gene expression of TAS2R13” value (TAS2R13; incubation 15 min) was 0.70 fold change. For the same substance, the “change in gene expression of TAS2R13” value (TAS2R13; incubation 30 min) was 1.65 fold change, the “change in gene expression of TAS2R13” value (TAS2R13; incubation 60 min) was 1.16 fold change and the “change in gene expression of TAS2R13” value (TAS2R13; incubation 120 min) was 1.31 fold change. The “change in gene expression of TAS2R20” value (TAS2R20; incubation 15 min) was 0.95 fold change, the “change in gene expression of TAS2R20” value (TAS2R20; incubation 30 min) was 1.42 fold change and the “change in gene expression of TAS2R20” value (TAS2R20; incubation 60 min) was 1.38 fold change. The “change in gene expression of TAS2R20” value (TAS2R20; incubation 120 min) was 1.31 fold change.

“VAPFPEVF [bitter casein peptide αS1-CN25–32]” was tested, and the “degradation” value (pepsin; SGF pH 3 with pepsin) was “no noticeable degradation”, the “change in gene expression of TAS2R3” value (TAS2R3; incubation 15 min) was 0.70 fold change and the “change in gene expression of TAS2R3” value (TAS2R3; incubation 30 min) was 1.56 fold change. For the same substance, the “change in gene expression of TAS2R3” value (TAS2R3; incubation 60 min) was 1.06 fold change, the “change in gene expression of TAS2R3” value (TAS2R3; incubation 120 min) was 1.72 fold change and the “change in gene expression of TAS2R10” value (TAS2R10; incubation 15 min) was 0.34 fold change and 0.34 ± 0.05 fold change. For the same substance, the “change in gene expression of TAS2R10” value (TAS2R10; incubation 30 min) was 0.76 fold change, the “change in gene expression of TAS2R10” value (TAS2R10; incubation 60 min) was 0.91 fold change and the “change in gene expression of TAS2R10” value (TAS2R10; incubation 120 min) was 1.15 fold change. The “change in gene expression of TAS2R13” value (TAS2R13; incubation 15 min) was 0.44 fold change, the “change in gene expression of TAS2R13” value (TAS2R13; incubation 30 min) was 1.28 fold change and the “change in gene expression of TAS2R13” value (TAS2R13; incubation 60 min) was 1.01 fold change. The “change in gene expression of TAS2R13” value (TAS2R13; incubation 120 min) was 1.92 fold change, the “change in gene expression of TAS2R20” value (TAS2R20; incubation 15 min) was 0.70 fold change and the “change in gene expression of TAS2R20” value (TAS2R20; incubation 30 min) was 1.33 fold change. For the same substance, the “change in gene expression of TAS2R20” value (TAS2R20; incubation 60 min) was 0.87 fold change and the “change in gene expression of TAS2R20” value (TAS2R20; incubation 120 min) was 1.78 fold change.
